Assay results: US12559529B2, “NPY2 receptor agonists” (Boehringer Ingelheim International GmbH, priority 2019, dated 2026)

molecular target: T1, Human Neuropeptide Y2 Receptor (Homo sapiens, UniProt P49146); test: Radioligand binding competition assay (RLB); details: Table 3; human 125I-PYY (1-36) 0.02 nM, Y2 receptor membranes; read-out: Ki
T1 construct: purchased CHEMICON HTS066M
T1 sequence (P49146 1-381): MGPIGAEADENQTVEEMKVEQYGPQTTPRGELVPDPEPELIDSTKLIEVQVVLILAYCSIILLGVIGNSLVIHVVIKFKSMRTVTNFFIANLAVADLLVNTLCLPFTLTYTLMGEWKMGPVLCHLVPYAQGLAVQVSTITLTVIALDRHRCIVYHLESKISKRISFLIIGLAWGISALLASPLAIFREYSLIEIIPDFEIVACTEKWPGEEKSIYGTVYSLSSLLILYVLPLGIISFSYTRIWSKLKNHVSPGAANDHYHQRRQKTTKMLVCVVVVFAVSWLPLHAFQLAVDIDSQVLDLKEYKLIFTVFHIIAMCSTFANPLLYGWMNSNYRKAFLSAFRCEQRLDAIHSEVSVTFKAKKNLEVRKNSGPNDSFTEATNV
Protocol: The filtration RLB assay was carried out in 96-well plates in a final volume of 100 μl per well. Freeze-dried test peptides were dissolved in 100% dimethyl sulfoxide (DMSO) to stock solutions of 1 mM and serial dilutions were performed in assay buffer (50 mM HEPES, 5 mM MgCl2, 1 mM CaCl2), pH 7.4) containing 0.2% ovalbumin. […] Next, 80 μL membranes (HTS066M, ChemiSCREEN™ Human Neuropeptide Y2 Receptor Membrane Preparation, CHEMICON) were added to each well to give a final protein concentration of 0.5 μg/well. The plates were sealed and incubated at room temperature for 2 hours in a plate shaker set at 400 rpm. The incubation was stopped by vacuum filtration onto 0.5% poly-ethylene amine (PEI) presoaked GF/C filters using a 96-well FilterMate™ harvester (Perkin Elmer) followed by four washes with 300 μl/well ice-cold wash buffer (50 mM HEPES, 500 mM NaCl, pH7.4). Filter plates were then dried for 60 min at room temperature and the bottom of the plates was sealed with backing tape UniFilter-96. Finally, 50 μl/well scintillation counter cocktail (Microscint20, Packard) was added and the radioactivity was counted in the Packard TopCount NXT scintillation counter. IC50 values (the half maximal inhibitory concentration of the agonist) were calculated by nonlinear regression analysis of sigmoidal dose-response curves.

| Structure (SMILES) | Ki |
| --- | --- |
| CC(C)CC(=O)N[C@@H](C)C(=O)N1CCC[C@H]1C(=O)N[C@@H](CCC(=O)O)C(=O)N[C@@H](CCCCNC(=O)COCCOCCNC(=O)COCCOCCNC(=O)CC[C@H](NC(=O)CCCCCCCCCCCCCCCCC(=O)O)C(=O)O)C(=O)N1CCC[C@H]1C(=O)N[C@@H](CCC(=O)O)C(=O)N[C@@H](CCC(=O)O)C(=O)N[C@@H](CC(=O)O)C(=O)N[C@@H](C)C(=O)N[C@@H](CO)C(=O)N1CCC[C@H]1C(=O)N[C@@H](CCC(=O)O)C(=O)N[C@@H](CCC(=O)O)C(=O)N[C@@H](CC(C)C)C(=O)N[C@@H](CCC(N)=O)C(=O)N[C@@H](CCCNC(=N)N)C(=O)N[C@@H](Cc1ccc(O)cc1)C(=O)N[C@@H](Cc1ccc(O)cc1)C(=O)N[C@H](C(=O)N[C@@H](CO)C(=O)N[C@@H](CC(C)C)C(=O)N[C@@H](CCCNC(=N)N)C(=O)N[C@@H](CCCCN)C(=O)N[C@@H](Cc1ccc(O)cc1)C(=O)N[C@@H](Cc1ccc(O)cc1)C(=O)N[C@@H](CC(N)=O)C(=O)N[C@@H](Cc1c[nH]c2ccccc12)C(=O)N[C@@H](CC(C)C)C(=O)N[C@H](C(=O)N[C@@H](CCCNC(=N)N)C(=O)N[C@@H](CCC(N)=O)C(=O)N[C@@H](CCCNC(=N)N)C(=O)N[C@@H](Cc1ccc(O)cc1)C(N)=O)[C@@H](C)O)C(C)C [Compound 24, N{alpha-4}-(3-methylbutanoyl)-N{epsilon-7}-[2-(2-{2-[2-(2-{2-[(4S)-4-carboxy-4-(17-carboxyheptadecanamido)butanamido]ethoxy}ethoxy)acetamido]ethoxy}ethoxy)acetamido]-[4A,7K,9E,18Q,22V,26K,28Y,30W,31L]hPYY (4-36)] | 2.22 nM |
| CC(C)CC(=O)N[C@@H](C)C(=O)N1CCC[C@H]1C(=O)N[C@@H](CCC(=O)O)C(=O)N[C@@H](CCCCNC(=O)COCCOCCNC(=O)COCCOCCNC(=O)CC[C@H](NC(=O)CCCCCCCCCCCCCCCCC(=O)O)C(=O)O)C(=O)N1CCC[C@H]1C(=O)N[C@@H](CCC(=O)O)C(=O)N[C@@H](CCC(=O)O)C(=O)N[C@@H](CCC(=O)O)C(=O)N[C@@H](C)C(=O)N[C@@H](CO)C(=O)N[C@@H](C)C(=O)N[C@@H](CCC(=O)O)C(=O)N[C@@H](CCC(=O)O)C(=O)N[C@@H](CC(C)C)C(=O)N[C@@H](CCC(N)=O)C(=O)N[C@@H](CCCNC(=N)N)C(=O)N[C@@H](Cc1ccc(O)cc1)C(=O)N[C@@H](Cc1ccc(O)cc1)C(=O)N[C@H](C(=O)N[C@@H](CO)C(=O)N[C@@H](CC(C)C)C(=O)N[C@@H](CCCNC(=N)N)C(=O)N[C@@H](Cc1c[nH]cn1)C(=O)N[C@@H](Cc1ccc(O)cc1)C(=O)N[C@@H](Cc1ccc(O)cc1)C(=O)N[C@@H](CC(N)=O)C(=O)N[C@@H](Cc1c[nH]c2ccccc12)C(=O)N[C@@H](CC(C)C)C(=O)N[C@H](C(=O)N[C@@H](CCCNC(=N)N)C(=O)N[C@@H](CCC(N)=O)C(=O)N[C@@H](CCCNC(=N)N)C(=O)N[C@@H](Cc1ccc(O)cc1)C(N)=O)[C@@H](C)O)C(C)C [Compound 25, N{alpha-4}-(3-methylbutanoyl)-N{epsilon-7}-[2-(2-{2-[2-(2-{2-[(4S)-4-carboxy-4-(17-carboxyheptadecanamido)butanamido]ethoxy}ethoxy)acetamido]ethoxy}ethoxy)acetamido]-[4A,7K,9E,11E,14A,18Q,22V,28Y,30W,31L]hPYY (4-36)] | 4.36 nM |
| CC(C)CC(=O)N[C@@H](C)C(=O)N1CCC[C@H]1C(=O)N[C@@H](CCC(=O)O)C(=O)N[C@@H](CCCCNC(=O)COCCOCCNC(=O)COCCOCCNC(=O)CC[C@H](NC(=O)CCCCCCCCCCCCCCCCC(=O)O)C(=O)O)C(=O)N1CCC[C@H]1C(=O)N1CCC[C@H]1C(=O)N[C@@H](CCC(=O)O)C(=O)N[C@@H](CC(=O)O)C(=O)N[C@@H](C)C(=O)N[C@H](C(=O)N1CCC[C@H]1C(=O)N[C@@H](CCC(=O)O)C(=O)N[C@@H](CCC(=O)O)C(=O)N[C@@H](CC(C)C)C(=O)N[C@@H](CCC(N)=O)C(=O)N[C@@H](CCCNC(=N)N)C(=O)N[C@@H](Cc1ccc(O)cc1)C(=O)N[C@@H](Cc1ccc(O)cc1)C(=O)N[C@H](C(=O)N[C@@H](CO)C(=O)N[C@@H](CC(C)C)C(=O)N[C@@H](CCCNC(=N)N)C(=O)N[C@@H](Cc1c[nH]cn1)C(=O)N[C@@H](Cc1ccc(O)cc1)C(=O)N[C@@H](Cc1ccc(O)cc1)C(=O)N[C@@H](CC(N)=O)C(=O)N[C@@H](Cc1c[nH]c2ccccc12)C(=O)N[C@@H](CC(C)C)C(=O)N[C@H](C(=O)N[C@@H](CCCNC(=N)N)C(=O)N[C@@H](CCC(N)=O)C(=O)N[C@@H](CCCNC(=N)N)C(=O)N[C@@H](Cc1ccc(O)cc1)C(N)=O)[C@@H](C)O)C(C)C)[C@@H](C)O [Compound 26, N{alpha-4}-(3-methylbutanoyl)-N{epsilon-7}-[2-(2-{2-[2-(2-{2-[(4S)-4-carboxy-4-(17-carboxyheptadecanamido)butanamido]ethoxy}ethoxy)acetamido]ethoxy}ethoxy)acetamido]-[4A,7K,9P,13T,18Q,22V,28Y,30W,31L]hPYY (4-36)] | 0.77 nM |
| CC(C)CC(=O)N[C@@H](C)C(=O)N1CCC[C@H]1C(=O)N[C@@H](CCC(=O)O)C(=O)N[C@@H](CCCCNC(=O)COCCOCCNC(=O)COCCOCCNC(=O)CC[C@H](NC(=O)CCCCCCCCCCCCCCCCC(=O)O)C(=O)O)C(=O)N1CCC[C@H]1C(=O)N1CCC[C@H]1C(=O)N[C@@H](CCC(=O)O)C(=O)N[C@@H](CC(=O)O)C(=O)N[C@@H](C)C(=O)N[C@@H](CCC(=O)O)C(=O)N1CCC[C@H]1C(=O)N[C@@H](CCC(=O)O)C(=O)N[C@@H](CCC(=O)O)C(=O)N[C@@H](CC(C)C)C(=O)N[C@@H](CCC(N)=O)C(=O)N[C@@H](CCCNC(=N)N)C(=O)N[C@@H](Cc1ccc(O)cc1)C(=O)N[C@@H](Cc1ccc(O)cc1)C(=O)N[C@H](C(=O)N[C@@H](CO)C(=O)N[C@@H](CC(C)C)C(=O)N[C@@H](CCCNC(=N)N)C(=O)N[C@@H](Cc1c[nH]cn1)C(=O)N[C@@H](Cc1ccc(O)cc1)C(=O)N[C@@H](Cc1ccc(O)cc1)C(=O)N[C@@H](CC(N)=O)C(=O)N[C@@H](Cc1c[nH]c2ccccc12)C(=O)N[C@@H](CC(C)C)C(=O)N[C@H](C(=O)N[C@@H](CCCNC(=N)N)C(=O)N[C@@H](CCC(N)=O)C(=O)N[C@@H](CCCNC(=N)N)C(=O)N[C@@H](Cc1ccc(O)cc1)C(N)=O)[C@@H](C)O)C(C)C [Compound 27, N{alpha-4}-(3-methylbutanoyl)-N{epsilon-7}-[2-(2-{2-[2-(2-{2-[(4S)-4-carboxy-4-(17-carboxyheptadecanamido)butanamido]ethoxy}ethoxy)acetamido]ethoxy}ethoxy)acetamido]-[4A,7K,9P,13E,18Q,22V,28Y,30W,31L]hPYY (4-36)] | 0.96 nM |
